Consider 4 compounds from PubChem BioAssay (NCI).

Experiment in all cases: NCI tumour cell line growth inhibition, 48 h
Test [1] relates to SK-OV-3 ovarian.
Test [2] has as its system EKVX NSCLC.
For test [3], the system named is KM12 colon.
The subject of test [4] is K-562 leukemia.
The test system of test [5] is NCI/ADR-RES ovarian.
For test [6], the system named is CAKI-1 renal.
Test [7] has as its system PC-3 prostate.
In test [8] the test system is SF-295 CNS.
The subject of test [9] is UO-31 renal.
For test [10], the system named is MDA-MB-231 breast.

Molecules are shown by their SMILES. Where “and” joins values, the source holds several entries; their conditions need not be identical. Equal entries are not always repeated.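 Results reflect a 48-hour exposure of cells in 96-well plates to compound at five concentrations. Abbreviation: GI50, concentration required for 50% inhibition of growth. At the TGI there is no net growth.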 Where only a bound is given, the exact number is not on record here.

For `COC(=O)C1=CN(CC2=CC(=O)C(C)=CC2=O)C=C(C(=O)OC)C1c1cccc(OC)c1`, the GI50 was 20.3 µM in [1]; 12.2 µM in [2]; 8.34 µM in test [3]; 3.84 µM in test [4]; 12.4 µM in test [5]; 2.45 µM in [6]. For the same compound, the GI50 in test [7] is 8 µM; in test [8] it was 10.3 µM; in test [9], 2.65 µM; in [10], 13.4 µM. Further, the TGI was 43.1 µM in [1]; 27.2 µM in [2]; 26.9 µM in [3]; above 35.6 µM in test [4]; 60.2 µM in test [5]; 5.61 µM in [6]. Moreover, the TGI in [7] was 29.9 µM; in test [8], 26.4 µM; in test [9], above 22.5 µM; in test [10] it was 31.2 µM.
With `Nc1ccn(C2OC(CO)C(O)C2O)c(=O)n1` (centres undefined), the GI50 in [1] was 2.7 µM; in test [4], 0.477 µM and 0.464 µM and 4.64 µM; in test [5], 0.532 µM; in test [6], 0.107 µM; in [7] it was above 46.3 µM; in test [8] it was 0.661 µM. The GI50 in test [9] is 0.715 µM. Also, the TGI in test [1] is above 500 µM; in [2] it was above 500 µM; in test [3] it was above 500 µM; in test [4], above 500 µM; in test [7] it was above 500 µM; in test [8] it was > 100 µM and 417 µM and > 500 µM. In [10], this compound showed a TGI above 500 µM.
`CC1(C)N=C(N)N=C(N)N1c1ccc(CCCCc2ccc(Cl)c(S(=O)(=O)F)c2)c(Cl)c1`: the GI50 in test [1] is 6.79 µM; in test [2], 2.81 µM; in test [3] it was 1.36 µM; in test [4], 0.127 µM; in [5] it was 40 µM; in test [6] it was 1.82 µM. In addition, the GI50 is 0.214 µM in [7], 0.995 µM in test [8], 8.2 µM in [9] and 4.03 µM in [10]. Also, the TGI in test [1] is 22.2 µM; in test [2], 37.7 µM; in test [3], 7.81 µM; in [4], 15.8 µM; in test [5], above 100 µM; in [6] it was 10.5 µM. Further, the TGI in test [7] came out at 15.1 µM; in test [8] it was 10.6 µM; in [9] it was 28.5 µM; in test [10], 20.6 µM.
On to `CC(C)=CCc1cc2c(cc1O)OC[C@H]1c3cc4c(cc3O[C@@H]21)OCO4`, for which the TGI in test [1] was above 100 µM; in test [2], 76.9 µM; in [3], above 100 µM; in test [4], above 100 µM; in test [5], 76.1 µM; in test [6], above 100 µM. The TGI in test [7], in [8], in test [9] and in test [10] was above 100 µM each time.
